# Patent US9849174B2, “Methods and compositions related to immunogenic fibrils” (The Board of Regents of the University of Texas System, priority 2009, dated 2017)
# “Also recorded” adds a separate entry of the source. Square brackets hold non-standard residues; d marks the D form.
# Experiments:
# OT-II cells = assay: In vitro activation assay of OT-II lymphocytes on nanofiber-coated wells, cytokines by flow cytometry; type: cell-based, mice; conditions: 6 h stimulation; for Cytokine (IFN-γ, IL-2) production by OT-II cells: nanofibers without OVA
# Source text: OVA-KFE8D Nanofibers Induce Robust CD4 T Helper Cell Responses. OVA (ISQAVHAAHAEINEAGR) (SEQ ID NO: 26), is a well-characterized CD4+ T helper epitope, a portion of which is also recognized by B cells (ISQAVHAAHA) (SEQ ID NO: 58) (Robertson, et al., 2000). Therefore, immunization with OVA leads to both CD4+ T cell activation and antibody production and studies have shown that antibody responses against OVA are CD4+ T celldependent (Rudra, et al., 2012; Robertson, et al., 2000). To assess whether the enantiomeric nature of nanofibers that contributed to enhanced antibody responses also leads to differential CD4+ T helper cell functionality, we utilized transgenic mice (OT-II mice) that have CD4+ T cells (OT-II cells) whose receptors recognize OVA in the context of MHC-class II molecules.30 CD4+ T cell responses were assessed using an in vitro activation assay. Whole lymphocyte extracts (containing antigen-presenting cell, B cell, and CD4+ T cell populations) from OT-II mice were cultured in wells coated with OVA-bearing enantiomers, and 6 h later the production of cytokines IFN-γ and IL-2 were measured using flow cytometry. Lymphocytes stimulated with PBS or free OVA peptide were used as negative and positive controls, respectively.
# [1] = tested on: antigen-specific T cells in the draining lymph nodes; assay: CD8 T cell responses after footpad immunization, tetramer staining of draining lymph nodes; type: in vivo, mice
# C57BL/6 mice [2] = assay: Subcutaneous immunization with OVA-KFE8 enantiomers, antibody responses by ELISA (Example 4); type: in vivo; conditions: for Total IgG antibody response: s.c., boost day 28
# C57BL/6 mice [3] = assay: Subcutaneous immunization of mice, serum antibody titers and isotypes by ELISA (Example 1); type: in vivo
# Protocol: To investigate how fibrillization affected the immunogenicity of OVA, C57BL/6 mice were immunized subcutaneously with the different peptides and boosted with additional peptide at 28 days (see methods). Serum was collected seven days after the boost, and levels of various immunoglobulins were measured.
# Immunizations. […] Stock solutions were then diluted in sterile, endotoxin-free PBS to working concentrations. […] CFA-adjuvanted groups received the same volume and total peptide dose, prepared by emulsifying peptide/PBS solutions 1:1 in CFA. […] CFA groups were boosted in incomplete Freund's adjuvant (IFA). Mice receiving mixtures of Q11 and OVA received 100 nmol of each peptide in the first injection and 50 nmol of each in the second. Seven days after the boost, the mice were sacrificed, and sera and spleens were harvested.
# Determination of antibody titers. High-binding ELISA plates (eBioscience) were coated with either 20 μg/mL peptide in PBS or PBS alone (for uncoated background subtraction) overnight at 4° C. […] To determine titers for each antiserum, background absorbance values from uncoated wells were subtracted from coated wells, and net absorbances were compared to cutoff values. The cutoff consisted of the mean plus three times the standard deviation of the negative control group (mice receiving OVA without adjuvant) for each corresponding dilution. Any sample dilutions having absorbances above this cutoff value were considered positive readings. The titer was considered as the highest dilution for which it and all lower dilutions had positive readings. If no positive dilutions were present the titer was considered to be 10^2. […] Antibody isotypes were analyzed similarly using a mouse monoclonal antibody kit containing goat anti-mouse IgG1, IgG2a, IgG2b, IgG3, and IgM (Sigma).
compound,measurement,setting,value
"CC(=O)N[C@H](Cc1ccccc1)C(=O)N[C@H](CCCCN)C(=O)N[C@H](Cc1ccccc1)C(=O)N[C@H](CCC(=O)O)C(=O)N[C@H](Cc1ccccc1)C(=O)N[C@H](CCCCN)C(=O)N[C@H](Cc1ccccc1)C(=O)N[C@H](CCC(=O)O)C(N)=O [KFE8(D), Ac-^DF^DK^DF^DE^DF^DK^DF^DE-Am]","Cytokine (IFN-γ, IL-2) production by OT-II cells",OT-II cells,no cytokine production
"CC(=O)N[C@@H](Cc1ccccc1)C(=O)N[C@@H](CCCCN)C(=O)N[C@@H](Cc1ccccc1)C(=O)N[C@@H](CCC(=O)O)C(=O)N[C@@H](Cc1ccccc1)C(=O)N[C@@H](CCCCN)C(=O)N[C@@H](Cc1ccccc1)C(=O)N[C@@H](CCC(=O)O)C(N)=O [KFE8(L), Ac-FKFEFKFE-Am]","Cytokine (IFN-γ, IL-2) production by OT-II cells",OT-II cells,no cytokine production
H2N-FKFEFKFEGGAAYSIINFEKL-Am (H-FKFEFKFEGGAAYSIINFEKL-NH2; not fully specified (some residues)) [SIN-KFE8(L)],"Memory CD8 T cell response: antigen-specific T cells in lymph nodes, compared with the enantiomer","[1]; boost day 28, evaluated day 32",significantly higher numbers of antigen-specific T cells
same,Effector and memory CD8+ T cell responses / tetramer+ CD8 T cells,"[1]; mouse, in vivo",robust effector and memory CD8+ T cell responses; also recorded: higher numbers of tetramer+CD8 T cells
H2N-ISQAVHAAHAEINEAGRSGSG^DF^DK^DF^DE^DF^DK^DF^DE-Am (H-ISQAVHAAHAEINEAGRSGSG[dF][dK][dF][dE][dF][dK][dF][dE]-NH2; SMILES CC[C@H](C)[C@H](N)C(=O)N[C@@H](CO)C(=O)N[C@@H](CCC(N)=O)C(=O)N[C@@H](C)C(=O)N[C@H](C(=O)N[C@@H](Cc1c[nH]cn1)C(=O)N[C@@H](C)C(=O)N[C@@H](C)C(=O)N[C@@H](Cc1c[nH]cn1)C(=O)N[C@@H](C)C(=O)N[C@@H](CCC(=O)O)C(=O)N[C@H](C(=O)N[C@@H](CC(N)=O)C(=O)N[C@@H](CCC(=O)O)C(=O)N[C@@H](C)C(=O)NCC(=O)N[C@@H](CCCNC(=N)N)C(=O)N[C@@H](CO)C(=O)NCC(=O)N[C@@H](CO)C(=O)NCC(=O)N[C@H](Cc1ccccc1)C(=O)N[C@H](CCCCN)C(=O)N[C@H](Cc1ccccc1)C(=O)N[C@H](CCC(=O)O)C(=O)N[C@H](Cc1ccccc1)C(=O)N[C@H](CCCCN)C(=O)N[C@H](Cc1ccccc1)C(=O)N[C@H](CCC(=O)O)C(N)=O)[C@@H](C)CC)C(C)C) [OVA-KFE8(D)],Antibody isotype levels compared to OVA-KFE8(L),"C57BL/6 mice [2]; IgG2a, IgG2b, IgG3, IgM, IgA",Significantly higher levels of all antibody isotypes
same,Anti-OVA antibodies on plates coated with free OVA peptide compared to OVA-KFE8(L),"C57BL/6 mice [2]; mouse, in vivo",higher levels of anti-OVA antibodies; also recorded: Significantly higher levels of antibodies
same,"IgG2a, IgM, and IgA production compared to OVA in ISA-720","C57BL/6 mice [2]; mouse, in vivo",significantly higher
same,"OVA-specific antibodies compared to OVA-KFE8(L), SGSG-KFE8 control wells subtracted","C57BL/6 mice [2]; mouse, in vivo",significantly higher levels of OVA-specific antibodies
same,Dominant antibody isotype,C57BL/6 mice [2]; plates coated with free OVA peptide,IgG1
same,Total IgG antibody response,C57BL/6 mice [2],robust antibody responses
same,Antibody levels compared to OVA-KFE8(L) nanofibers or OVA in ISA-720,C57BL/6 mice [2]; series of serum dilutions,Significantly higher levels of total IgG
same,Antibody levels pre-boost compared to OVA-KFE8(L),C57BL/6 mice [2]; week 2 up to the boost at week 4,significantly higher levels of antibodies
same,Difference in IFN-γ and IL-2 production / CD4+ T cell activation between the enantiomers,OT-II cells,no significant differences
same,IFN-γ production by OT-II cells compared to wells coated with PBS or bare nanofibers,OT-II cells,significantly higher levels
same,IL-2 production by OT-II cells compared to wells coated with PBS or bare nanofibers,OT-II cells,significantly higher levels
H2N-^DF^DK^DF^DE^DF^DK^DF^DEGGAAYSIINFEKL-Am [SIN-KFE8(D)],"Effector CD8 T cell response: antigen-specific T cells in draining lymph nodes, compared with the enantiomer","[1]; footpad, boost day 5, evaluated day 8",significantly lower numbers of antigen-specific T cells
"H-ISQAVHAAHAEINEAGR-OH [OVA, H2N-ISQAVHAAHAEINEAGR-OH, reference compound]",Total IgG response,"C57BL/6 mice [3]; peptide in PBS without added adjuvant, s.c., boost day 28, serum 7 days after boost",did not raise detectable IgG; also recorded: did not elicit a response
same,IgG titer,"C57BL/6 mice [3]; without adjuvant, baseline level of detection",10^2
same,Total IgG antibody response,C57BL/6 mice [2],did not raise any detectable IgG
